Test results: PubChem BioAssay AID330 (DTP/NCI, 2004)
“And” between values parts separate entries of the source, which are not always exact repeats. Equal values may be shown once. Inconclusive results and toxic doses are left out.

Test system: P388 leukemia ip, CD2F1 mice, survival T/C
Assay: NCI In Vivo Anticancer Drug Screen. Data for tumor model P388 Leukemia (intraperitoneal) in CD2F1 (CDF1) mice
Details: endpoint: median survival time, higher = longer survival
How it was run: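 Mice carrying the transplanted tumor received test compound or vehicle. Survival was recorded in each group, and the value is the treated-group measurement divided by that of the vehicle-treated control group.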

[1] = dose: 50.0 mg/kg/injection, schedule: Q01DX005 (ip), vehicle: Klucel (hydroxypropylcellulose) (HPC)
[2] = dose: 100.0 mg/kg/injection, schedule: Q01DX005 (ip), vehicle: Klucel (hydroxypropylcellulose) (HPC)
[3] = dose: 50.0 mg/kg/injection, schedule: Q01DX009 (ip), vehicle: Klucel (hydroxypropylcellulose) (HPC)
[4] = dose: 100.0 mg/kg/injection, schedule: Q01DX009 (ip), vehicle: Klucel (hydroxypropylcellulose) (HPC)
[5] = dose: 200.0 mg/kg/injection, schedule: Q01DX009 (ip), vehicle: Klucel (hydroxypropylcellulose) (HPC)
[6] = dose: 100.0 mg/kg/injection, schedule: Q04DX003 (ip), vehicle: saline with Tween-80
[7] = dose: 200.0 mg/kg/injection, schedule: Q04DX003 (ip), vehicle: saline with Tween-80
[8] = dose: 400.0 mg/kg/injection, schedule: Q04DX003 (ip), vehicle: saline with Tween-80
[9] = dose: 60.0 mg/kg/injection, schedule: Q01DX005 (ip), vehicle: saline with Tween-80
[10] = dose: 50.0 mg/kg/injection, schedule: Q01DX009 (ip), vehicle: saline with Tween-80
[11] = dose: 100.0 mg/kg/injection, schedule: Q01DX009 (ip), vehicle: saline with Tween-80
[12] = dose: 200.0 mg/kg/injection, schedule: Q01DX009 (ip), vehicle: saline with Tween-80
[13] = dose: 120.0 mg/kg/injection, schedule: Q01DX005 (ip), vehicle: saline with Tween-80
[14] = dose: 240.0 mg/kg/injection, schedule: Q01DX005 (ip), vehicle: saline with Tween-80
[15] = dose: 50.0 mg/kg/injection, schedule: Q01DX005 (ip), vehicle: saline with Tween-80
[16] = dose: 100.0 mg/kg/injection, schedule: Q01DX005 (ip), vehicle: saline with Tween-80
[17] = dose: 200.0 mg/kg/injection, schedule: Q01DX005 (ip), vehicle: saline with Tween-80

O=[N+]([O-])c1ccc(Nc2cn[nH]n2)cc1
T/C (dose: 60.0 mg/kg/injection, schedule: Q01DX005 (ip), vehicle: Klucel (hydroxypropylcellulose) (HPC)): 100 % of control
T/C (dose: 120.0 mg/kg/injection, schedule: Q01DX005 (ip), vehicle: Klucel (hydroxypropylcellulose) (HPC)): 102 % of control
T/C (dose: 240.0 mg/kg/injection, schedule: Q01DX005 (ip), vehicle: Klucel (hydroxypropylcellulose) (HPC)): 99 % of control

COC(=O)[C@@H]1[C@H]2CS(=O)(=O)C[C@H]2[C@@H]1C(=O)OC
T/C [1]: 99 % of control
T/C [2]: 96 % of control
T/C (dose: 200.0 mg/kg/injection, schedule: Q01DX005 (ip), vehicle: Klucel (hydroxypropylcellulose) (HPC)): 100 % of control

CCOC(=O)/C(=C\Nc1cccc(OCc2ccccc2)c1)NC(=O)c1ccccc1
T/C [3]: 87 % of control
T/C [4]: 88 % of control
T/C [5]: 86 % of control and 96 % of control
T/C (dose: 400.0 mg/kg/injection, schedule: Q01DX009 (ip), vehicle: Klucel (hydroxypropylcellulose) (HPC)): 97 % of control

CC[C@]1(O)CN2CCc3c([nH]c4ccccc34)[C@@](C(=O)OC)(c3cc4c(cc3OC)N(C)[C@H]3[C@@](O)(C(=O)OC)[C@H](OC(C)=O)[C@]5(CC)C=CCN6CC[C@]43[C@@H]65)C[C@H](C2=O)[C@H]1O
T/C (dose: 4.0 mg/kg/injection, schedule: Q01DX001 (ip), vehicle: water): 115 % of control
T/C (dose: 8.0 mg/kg/injection, schedule: Q01DX001 (ip), vehicle: water): 117 % of control
T/C (dose: 16.0 mg/kg/injection, schedule: Q01DX001 (ip), vehicle: water): 115 % of control and 124 % of control
T/C (dose: 128.0 mg/kg/injection, schedule: Q01DX001 (ip), vehicle: water): 150 % of control

Cc1ccc(C(=O)CC2(O)C(=O)Nc3ccccc32)cc1 (stereo not drawn)
T/C [3]: 96 % of control
T/C [4]: 92 % of control
T/C [5]: 87 % of control

O=c1[nH]oc2c1CCNC2
T/C (dose: 100.0 mg/kg/injection, schedule: Q04DX003 (ip), vehicle: saline): 98 % of control
T/C (dose: 200.0 mg/kg/injection, schedule: Q04DX003 (ip), vehicle: saline): 103 % of control

CNC(=O)Oc1cc(C)c[n+]([O-])c1
T/C (dose: 50.0 mg/kg/injection, schedule: Q01DX005 (ip), vehicle: saline): 100 % of control
T/C (dose: 100.0 mg/kg/injection, schedule: Q01DX005 (ip), vehicle: saline): 104 % of control
T/C (dose: 200.0 mg/kg/injection, schedule: Q01DX005 (ip), vehicle: saline): 104 % of control

CCc1nc(N)nc(N)c1-c1ccc(Cl)c(N)c1
T/C (dose: 3.12 mg/kg/injection, schedule: Q01DX009 (ip), vehicle: distilled water + Tween-80): 101 % of control
T/C (dose: 6.25 mg/kg/injection, schedule: Q01DX009 (ip), vehicle: distilled water + Tween-80): 111 % of control
T/C (dose: 12.5 mg/kg/injection, schedule: Q01DX009 (ip), vehicle: distilled water + Tween-80): 110 % of control
T/C (dose: 25.0 mg/kg/injection, schedule: Q01DX009 (ip), vehicle: distilled water + Tween-80): 100 % of control
T/C (dose: 50.0 mg/kg/injection, schedule: Q01DX009 (ip), vehicle: distilled water + Tween-80): 100 % of control and 111 % of control
T/C (dose: 100.0 mg/kg/injection, schedule: Q01DX009 (ip), vehicle: distilled water + Tween-80): 105 % of control
T/C (dose: 200.0 mg/kg/injection, schedule: Q01DX009 (ip), vehicle: distilled water + Tween-80): 101 % of control
T/C (dose: 400.0 mg/kg/injection, schedule: Q01DX009 (ip), vehicle: distilled water + Tween-80): 118 % of control

CCC1(c2ccccc2)CCC(C#N)C1=N (stereo not drawn)
T/C (dose: 100.0 mg/kg/injection, schedule: Q01DX001 (ip), vehicle: Klucel (hydroxypropylcellulose) (HPC)): 102 % of control
T/C (dose: 200.0 mg/kg/injection, schedule: Q01DX001 (ip), vehicle: Klucel (hydroxypropylcellulose) (HPC)): 100 % of control
T/C (dose: 400.0 mg/kg/injection, schedule: Q01DX001 (ip), vehicle: Klucel (hydroxypropylcellulose) (HPC)): 98 % of control

Cc1ccc(Cl)cc1NS(=O)(=O)c1ccc(Br)cc1
T/C [6]: 100 % of control
T/C [7]: 100 % of control
T/C [8]: 104 % of control

COc1cc(N)ccc1NC(=O)c1ccccc1
T/C (dose: 6.25 mg/kg/injection, schedule: Q01DX009 (ip), vehicle: saline with Tween-80): 109 % of control
T/C (dose: 12.5 mg/kg/injection, schedule: Q01DX009 (ip), vehicle: saline with Tween-80): 100 % of control

Nc1nc(Cc2ccccc2)c(CCCNc2ccccc2)c(=O)[nH]1
T/C (dose: 0.78 mg/kg/injection, schedule: Q01DX009 (ip), vehicle: saline): 100 % of control
T/C (dose: 1.56 mg/kg/injection, schedule: Q01DX009 (ip), vehicle: saline): 100 % of control
T/C (dose: 3.13 mg/kg/injection, schedule: Q01DX009 (ip), vehicle: saline): 102 % of control
T/C (dose: 6.25 mg/kg/injection, schedule: Q01DX009 (ip), vehicle: saline): 100 % of control

CC(=O)CCCCCCCCCCCCCCC1=C(C)C(=O)OC1=O
T/C (dose: 25.0 mg/kg/injection, schedule: Q01DX005 (ip), vehicle: Klucel (hydroxypropylcellulose) (HPC)): 103 % of control
T/C [1]: 99 % of control
T/C [2]: 89 % of control
T/C (dose: 400.0 mg/kg/injection, schedule: Q01DX005 (ip), vehicle: Klucel (hydroxypropylcellulose) (HPC)): 96 % of control

CN(C/C=C/CN(C)C(=O)Nc1ccccc1)C(=O)Nc1ccccc1
T/C (dose: 50.0 mg/kg/injection, schedule: Q01DX009 (ip), vehicle: saline): 96 % of control
T/C (dose: 100.0 mg/kg/injection, schedule: Q01DX009 (ip), vehicle: saline): 100 % of control
T/C (dose: 200.0 mg/kg/injection, schedule: Q01DX009 (ip), vehicle: saline): 89 % of control

O=C(Nc1cc(Cl)c(Cl)cc1Cl)OCc1ccc2c(c1)OCO2
T/C (dose: 15.0 mg/kg/injection, schedule: Q01DX005 (ip), vehicle: saline with Tween-80): 100 % of control
T/C (dose: 30.0 mg/kg/injection, schedule: Q01DX005 (ip), vehicle: saline with Tween-80): 94 % of control
T/C [9]: 89 % of control and 91 % of control

Cn1ccoc1=NC1CCCCC1
T/C [10]: 110 % of control
T/C [11]: 100 % of control
T/C [12]: 100 % of control

Cc1cc(NC(=O)Nc2cccc(C3=NCCN3)c2)ccc1NC(=O)Nc1cccc(C2=NCCN2)c1
T/C [6]: 108 % of control
T/C [7]: 108 % of control
T/C [8]: 120 % of control

Cc1cc2[nH]c3c(C#N)c(OC(=O)N(C)C)c(-c4ccccc4)c(=O)n3c2cc1C
T/C [9]: 97 % of control
T/C [13]: 90 % of control
T/C [14]: 92 % of control

COC(=O)C1=CC(=O)N2CCN=C2S1
T/C [15]: 103 % of control
T/C [16]: 100 % of control
T/C [17]: 90 % of control

COc1ccc(-c2c(CC(=O)O)c3cc(OC)ccc3n2Cc2ccc(Cl)cc2)cc1
T/C [10]: 101 % of control
T/C [11]: 100 % of control
T/C [6]: 90 % of control
T/C [12]: 100 % of control
T/C [7]: 90 % of control
T/C (dose: 400.0 mg/kg/injection, schedule: Q01DX009 (ip), vehicle: saline with Tween-80): 91 % of control
T/C [8]: 90 % of control

Cc1ccc(C)c(NC(=O)CCC(=O)CC(=O)c2ccncc2)c1
T/C [9]: 107 % of control
T/C [13]: 107 % of control
T/C [14]: 105 % of control

COc1ccc2c(c1)CN(C)CO2
T/C [15]: 103 % of control
T/C [16]: 102 % of control
T/C [17]: 107 % of control

C[n+]1c2ccccc2c(Nc2ccc(NS(=O)(=O)CCCCN=C(N)N)cc2)c2ccc(N)cc21
T/C (dose: 0.75 mg/kg/injection, schedule: Q01DX005 (ip), vehicle: Klucel (hydroxypropylcellulose) (HPC)): 113 % of control
T/C (dose: 1.5 mg/kg/injection, schedule: Q01DX005 (ip), vehicle: Klucel (hydroxypropylcellulose) (HPC)): 122 % of control
T/C (dose: 3.0 mg/kg/injection, schedule: Q01DX005 (ip), vehicle: Klucel (hydroxypropylcellulose) (HPC)): 151 % of control

O=C(Nc1cccc(Cl)c1)Nc1ccc[nH]c1=O
T/C [10]: 101 % of control
T/C [11]: 109 % of control
T/C [12]: 109 % of control

N#CC(C(=O)C(N)=O)c1ccc(Cl)cc1Cl (stereo not drawn)
T/C [9]: 104 % of control
T/C [13]: 103 % of control
T/C [14]: 100 % of control

O=[N+]([O-])c1cccc(C2CC(c3ccccc3)=Nc3ccccc3S2)c1 (stereo not drawn)
T/C [3]: 107 % of control
T/C [4]: 100 % of control
